Data: ChEMBL document CHEMBL1201862, “PubChem BioAssay data set” (2004)
Active and inactive are the calls of the source.

How the values were obtained:
[1] = inhibitors of firefly luciferase expression or activity, dose response, H4 neuroglioma cells, luminescence (AID 1990); type: functional, cell-based
[2] = target: Sphingosine 1-phosphate receptor 2 (Homo sapiens, UniProt O95136); test: Dose Response Cell Based Assay for Antagonists of the S1P2 Receptor. [Related pubchem assays: 856, 736 ]; type: functional
Chain of Sphingosine 1-phosphate receptor 2 (O95136 whole entry): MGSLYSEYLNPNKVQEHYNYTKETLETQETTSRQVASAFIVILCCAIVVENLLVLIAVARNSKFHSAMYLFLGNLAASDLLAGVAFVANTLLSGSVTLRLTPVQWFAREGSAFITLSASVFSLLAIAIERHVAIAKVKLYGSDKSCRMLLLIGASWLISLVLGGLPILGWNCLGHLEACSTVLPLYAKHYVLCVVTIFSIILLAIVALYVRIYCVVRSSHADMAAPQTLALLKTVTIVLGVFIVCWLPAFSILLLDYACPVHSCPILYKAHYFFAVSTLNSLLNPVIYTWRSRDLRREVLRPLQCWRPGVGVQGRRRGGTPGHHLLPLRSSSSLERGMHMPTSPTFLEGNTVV

[3] = Luminescence Cell-Based Dose Response HTS to Identify Inhibitors of 5'UTR Stem-Loop Driven Prion Protein mRNA Translation in H4 Neuroglioblastoma Cells. [Related pubchem assays: 1827 (Project Summary), 1813 (Primary HTS)]; type: functional
[4] = inhibitors of SNCA 5'UTR-driven reporter translation, confirmation, H4 neuroglioma cells, luminescence (AID 1988); type: functional, cell-based
Mucolipin-3 = target: T1, Mucolipin-3 (Homo sapiens, UniProt Q8TDD5); test: Dose response cell-based high-throughput screening assay for agonists of the transient receptor potential channel ML3 (TRPML3). [Related pubchem assays: 1526, 1424, 1448 ]; type: functional
T1 sequence (Q8TDD5 whole entry): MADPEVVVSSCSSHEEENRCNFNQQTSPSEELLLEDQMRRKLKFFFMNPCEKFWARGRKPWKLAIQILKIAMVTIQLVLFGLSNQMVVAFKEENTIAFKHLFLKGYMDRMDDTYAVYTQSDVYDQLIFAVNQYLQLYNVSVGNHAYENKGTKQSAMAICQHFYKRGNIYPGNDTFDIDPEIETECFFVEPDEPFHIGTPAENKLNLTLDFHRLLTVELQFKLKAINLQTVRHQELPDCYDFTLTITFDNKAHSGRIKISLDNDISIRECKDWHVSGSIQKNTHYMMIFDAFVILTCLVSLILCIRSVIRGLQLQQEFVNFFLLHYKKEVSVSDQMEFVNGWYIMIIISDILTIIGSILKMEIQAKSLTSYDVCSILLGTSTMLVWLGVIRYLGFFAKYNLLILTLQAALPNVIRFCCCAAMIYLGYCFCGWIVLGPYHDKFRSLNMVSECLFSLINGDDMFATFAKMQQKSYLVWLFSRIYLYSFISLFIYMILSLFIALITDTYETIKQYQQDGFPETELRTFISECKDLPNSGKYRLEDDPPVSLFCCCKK

Ion channel NompC = Ion channel NompC (Danio rerio, UniProt Q7T1G6); test: Fluorescence counterscreen assay for TRPML3 agonists: dose response cell-based high-throughput screening assay to identify agonists of the transient receptor potential channel N1 (TRPN1). [Related pubchem assays: 1526, 1424, 1448 ]; type: functional
Chain of Ion channel NompC (Q7T1G6 whole entry): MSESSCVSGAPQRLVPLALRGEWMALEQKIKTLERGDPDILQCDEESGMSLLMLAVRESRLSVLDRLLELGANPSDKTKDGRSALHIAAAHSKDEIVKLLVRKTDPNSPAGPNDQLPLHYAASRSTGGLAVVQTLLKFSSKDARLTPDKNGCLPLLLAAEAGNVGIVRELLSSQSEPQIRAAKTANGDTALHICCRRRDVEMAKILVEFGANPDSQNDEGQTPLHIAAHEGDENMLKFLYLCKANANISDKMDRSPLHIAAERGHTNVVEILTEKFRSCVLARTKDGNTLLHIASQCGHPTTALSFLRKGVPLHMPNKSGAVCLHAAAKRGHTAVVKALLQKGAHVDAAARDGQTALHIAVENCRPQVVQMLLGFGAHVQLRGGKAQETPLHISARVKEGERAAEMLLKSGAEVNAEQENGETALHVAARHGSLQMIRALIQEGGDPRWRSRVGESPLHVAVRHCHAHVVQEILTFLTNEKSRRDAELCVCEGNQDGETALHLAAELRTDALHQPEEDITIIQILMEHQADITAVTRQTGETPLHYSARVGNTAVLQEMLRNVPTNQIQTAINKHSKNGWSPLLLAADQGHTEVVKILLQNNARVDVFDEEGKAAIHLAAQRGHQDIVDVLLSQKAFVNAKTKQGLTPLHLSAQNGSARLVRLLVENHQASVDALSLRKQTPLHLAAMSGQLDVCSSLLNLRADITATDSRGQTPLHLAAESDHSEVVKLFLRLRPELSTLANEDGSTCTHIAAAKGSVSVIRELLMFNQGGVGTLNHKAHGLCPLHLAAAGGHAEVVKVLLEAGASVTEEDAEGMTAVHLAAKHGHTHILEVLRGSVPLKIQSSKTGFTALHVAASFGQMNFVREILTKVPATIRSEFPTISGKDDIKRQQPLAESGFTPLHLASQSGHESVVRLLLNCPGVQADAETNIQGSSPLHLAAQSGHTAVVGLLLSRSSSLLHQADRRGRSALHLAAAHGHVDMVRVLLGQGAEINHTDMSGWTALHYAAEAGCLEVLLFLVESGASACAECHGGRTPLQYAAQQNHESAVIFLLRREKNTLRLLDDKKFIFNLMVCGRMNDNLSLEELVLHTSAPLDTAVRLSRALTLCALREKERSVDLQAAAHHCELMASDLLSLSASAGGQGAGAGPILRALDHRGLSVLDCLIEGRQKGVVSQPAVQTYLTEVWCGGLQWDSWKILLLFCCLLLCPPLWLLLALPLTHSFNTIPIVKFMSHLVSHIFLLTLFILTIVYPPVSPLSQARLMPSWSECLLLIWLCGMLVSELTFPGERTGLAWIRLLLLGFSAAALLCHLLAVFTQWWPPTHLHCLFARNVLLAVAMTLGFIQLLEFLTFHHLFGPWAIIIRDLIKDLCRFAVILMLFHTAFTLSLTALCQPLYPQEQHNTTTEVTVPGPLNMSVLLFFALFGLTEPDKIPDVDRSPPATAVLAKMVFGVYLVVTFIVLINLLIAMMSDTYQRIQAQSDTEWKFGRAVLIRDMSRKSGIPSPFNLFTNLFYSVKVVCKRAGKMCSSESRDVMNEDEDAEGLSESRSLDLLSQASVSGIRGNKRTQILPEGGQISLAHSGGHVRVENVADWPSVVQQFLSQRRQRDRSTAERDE

Bcl-2-related protein A1 [5] = target: T2, Bcl-2-related protein A1 (Mus musculus, UniProt Q07440); test: Bfl-1 inhibitors blocking BH3 peptide binding, confirmation, biochemical, TR-FRET, mouse Bfl-1 (AID 621);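 further: TR-FRET binding of GST-Bfl-1 to FITC-labelled Bid peptide via terbium antibody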
T2 sequence (Q07440 whole entry): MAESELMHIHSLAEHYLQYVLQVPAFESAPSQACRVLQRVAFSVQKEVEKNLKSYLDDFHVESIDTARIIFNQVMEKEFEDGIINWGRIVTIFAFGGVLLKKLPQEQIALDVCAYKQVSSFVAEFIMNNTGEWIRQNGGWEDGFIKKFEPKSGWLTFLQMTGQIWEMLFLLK

Bcl-2-related protein A1 [6] = target: T2, Bcl-2-related protein A1; test: Bfl-1 binding inhibitors, SAR follow-up, biochemical, fluorescence polarization (AID 1070)

For `O=C(c1cc(NC(=O)C23CC4CC(CC(C4)C2)C3)cc(NC(=O)C23CC4CC(CC(C4)C2)C3)c1)N1CCCCC1`, the EC50 [1] was 17.1 µM (active), the IC50 [2] was 0.977 µM (active) and the EC50 [3] was 15.7 µM (active). For the same compound, the EC50 [4] was 12.2 µM (inconclusive).
With `CN(CC(=O)ONC(=N)c1cccc([N+](=O)[O-])c1)S(=O)(=O)c1ccccc1` the EC50 (Mucolipin-3) was 12.4 µM (not active) and the EC50 (Ion channel NompC) was > 29.9 µM (not active).
In the case of `Clc1ccc(-n2nnc(-c3cnc4ccccc4c3)n2)cn1`, the IC50 (Bcl-2-related protein A1 [5]) is reported as > 100 µM (not active) and the IC50 (Bcl-2-related protein A1 [6]) is reported as > 100 µM (not active).
For `Cc1cccc(N2CCN(C3=C(Cl)C(=O)N(c4ccc(Cl)c(Cl)c4)C3=O)CC2)c1`, the IC50 (Bcl-2-related protein A1 [5]) was > 100 µM (not active) and the IC50 (Bcl-2-related protein A1 [6]) was > 100 µM (not active).
